{"source": "paper PMC6704710", "about": "“Preclinical evaluation of 3D185, a novel potent inhibitor of FGFR1/2/3 and CSF-1R, in FGFR-dependent and macrophage-dominant cancer models” (Journal of Experimental & Clinical Cancer Research : CR, 2019)", "test_in_all_cases": "Eurofins kinase panel", "assay_type_in_all_cases": "biochemical", "conditions_in_all_cases": "read-out: Inhibition rate (%)", "key": {"[1]": {"molecular_target": "T1, PKCα(h) (Homo sapiens, UniProt P17252)", "T1 construct": "purchased Eurofins (KinaseProfiler)"}, "[2]": {"molecular_target": "T2, CaMKIIγ(h) (Homo sapiens, UniProt Q13555)", "T2 construct": "purchased Eurofins (KinaseProfiler)", "T2 sequence (Q13555 whole entry)": "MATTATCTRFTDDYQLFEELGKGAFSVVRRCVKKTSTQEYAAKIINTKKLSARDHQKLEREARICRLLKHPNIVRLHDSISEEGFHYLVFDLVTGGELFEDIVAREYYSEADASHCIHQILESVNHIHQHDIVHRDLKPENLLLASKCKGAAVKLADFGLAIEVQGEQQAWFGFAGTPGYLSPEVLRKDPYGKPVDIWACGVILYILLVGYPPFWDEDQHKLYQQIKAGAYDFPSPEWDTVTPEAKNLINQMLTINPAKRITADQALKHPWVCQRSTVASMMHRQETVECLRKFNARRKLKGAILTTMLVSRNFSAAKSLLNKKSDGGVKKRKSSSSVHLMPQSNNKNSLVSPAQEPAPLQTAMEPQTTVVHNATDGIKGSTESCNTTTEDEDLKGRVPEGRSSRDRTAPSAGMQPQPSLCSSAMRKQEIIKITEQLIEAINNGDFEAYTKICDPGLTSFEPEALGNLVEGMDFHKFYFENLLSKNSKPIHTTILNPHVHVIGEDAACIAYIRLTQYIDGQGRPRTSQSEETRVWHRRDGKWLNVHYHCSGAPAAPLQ"}, "[3]": {"molecular_target": "T3, A-Raf(h) (Homo sapiens, UniProt P10398)", "T3 construct": "purchased Eurofins (KinaseProfiler)", "T3 sequence (P10398 1-606)": "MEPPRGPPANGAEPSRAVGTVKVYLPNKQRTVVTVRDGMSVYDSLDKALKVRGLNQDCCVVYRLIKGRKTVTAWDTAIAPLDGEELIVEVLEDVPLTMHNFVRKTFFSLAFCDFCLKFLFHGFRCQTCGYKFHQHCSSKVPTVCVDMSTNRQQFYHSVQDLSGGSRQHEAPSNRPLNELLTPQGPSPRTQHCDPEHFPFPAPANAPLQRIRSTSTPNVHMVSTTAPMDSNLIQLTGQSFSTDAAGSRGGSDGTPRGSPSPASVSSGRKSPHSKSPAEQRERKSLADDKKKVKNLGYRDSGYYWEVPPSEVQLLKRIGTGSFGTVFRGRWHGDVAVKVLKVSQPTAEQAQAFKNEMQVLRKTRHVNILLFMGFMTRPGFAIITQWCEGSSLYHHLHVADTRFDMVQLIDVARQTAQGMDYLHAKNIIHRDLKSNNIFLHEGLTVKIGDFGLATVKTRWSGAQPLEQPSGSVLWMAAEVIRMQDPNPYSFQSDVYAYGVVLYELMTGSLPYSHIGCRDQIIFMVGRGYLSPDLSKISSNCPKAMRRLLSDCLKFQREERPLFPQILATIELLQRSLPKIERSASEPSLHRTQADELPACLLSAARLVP"}, "[4]": {"molecular_target": "T4, TGFBR1(h) (Homo sapiens, UniProt P36897)", "T4 construct": "purchased Eurofins (KinaseProfiler)", "T4 sequence (P36897 34-503)": "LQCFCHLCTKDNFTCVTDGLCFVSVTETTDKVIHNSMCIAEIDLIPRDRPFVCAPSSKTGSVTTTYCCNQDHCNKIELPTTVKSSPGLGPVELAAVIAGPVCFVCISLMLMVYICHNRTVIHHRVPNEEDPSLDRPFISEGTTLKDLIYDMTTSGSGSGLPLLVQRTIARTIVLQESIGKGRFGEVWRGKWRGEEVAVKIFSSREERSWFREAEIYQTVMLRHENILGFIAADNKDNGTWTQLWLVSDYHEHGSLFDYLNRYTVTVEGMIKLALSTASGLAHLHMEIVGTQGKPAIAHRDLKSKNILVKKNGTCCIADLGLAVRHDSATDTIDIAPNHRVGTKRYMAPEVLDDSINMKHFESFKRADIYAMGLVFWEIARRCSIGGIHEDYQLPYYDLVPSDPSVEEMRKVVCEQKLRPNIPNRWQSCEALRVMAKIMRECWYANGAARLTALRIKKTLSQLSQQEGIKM"}, "[5]": {"molecular_target": "T5, TrkB(h) (Homo sapiens, UniProt Q16620)", "T5 construct": "purchased Eurofins (KinaseProfiler)", "T5 sequence (Q16620 32-822)": "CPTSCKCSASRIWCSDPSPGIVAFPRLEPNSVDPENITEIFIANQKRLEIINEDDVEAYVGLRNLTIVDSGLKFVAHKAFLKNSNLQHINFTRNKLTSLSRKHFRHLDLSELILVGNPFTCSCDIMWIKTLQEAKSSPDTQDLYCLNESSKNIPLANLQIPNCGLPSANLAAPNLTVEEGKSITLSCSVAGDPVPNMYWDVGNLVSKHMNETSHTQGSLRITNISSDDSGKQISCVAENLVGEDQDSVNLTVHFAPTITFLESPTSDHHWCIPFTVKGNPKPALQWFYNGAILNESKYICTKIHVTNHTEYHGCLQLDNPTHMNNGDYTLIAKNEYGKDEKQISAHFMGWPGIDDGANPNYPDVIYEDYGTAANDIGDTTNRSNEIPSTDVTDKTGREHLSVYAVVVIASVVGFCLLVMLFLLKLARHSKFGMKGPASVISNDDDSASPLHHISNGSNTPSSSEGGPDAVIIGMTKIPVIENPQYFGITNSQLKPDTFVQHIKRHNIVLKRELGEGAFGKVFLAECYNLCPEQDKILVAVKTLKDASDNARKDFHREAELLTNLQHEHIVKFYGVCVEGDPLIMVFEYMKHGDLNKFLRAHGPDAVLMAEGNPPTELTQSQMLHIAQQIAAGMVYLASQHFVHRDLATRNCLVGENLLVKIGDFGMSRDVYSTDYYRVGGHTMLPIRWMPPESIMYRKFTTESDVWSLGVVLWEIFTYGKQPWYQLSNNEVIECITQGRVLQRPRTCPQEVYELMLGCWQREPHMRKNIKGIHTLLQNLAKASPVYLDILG"}, "[6]": {"molecular_target": "T6, SBK1(h) (Homo sapiens, UniProt Q52WX2)", "T6 construct": "purchased Eurofins (KinaseProfiler)", "T6 sequence (Q52WX2 whole entry)": "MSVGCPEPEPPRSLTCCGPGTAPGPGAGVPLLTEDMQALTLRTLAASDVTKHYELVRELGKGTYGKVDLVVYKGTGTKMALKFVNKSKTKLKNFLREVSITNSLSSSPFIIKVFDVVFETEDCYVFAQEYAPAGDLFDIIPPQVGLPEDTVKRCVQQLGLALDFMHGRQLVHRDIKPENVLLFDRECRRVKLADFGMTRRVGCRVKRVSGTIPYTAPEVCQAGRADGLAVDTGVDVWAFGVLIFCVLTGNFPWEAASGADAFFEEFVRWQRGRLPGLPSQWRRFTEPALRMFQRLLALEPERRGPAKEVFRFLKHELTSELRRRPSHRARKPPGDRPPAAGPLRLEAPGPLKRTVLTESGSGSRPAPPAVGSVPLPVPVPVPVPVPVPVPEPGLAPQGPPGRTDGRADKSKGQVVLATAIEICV"}, "[7]": {"molecular_target": "T7, PAK6(h) (Homo sapiens, UniProt Q9NQU5)", "T7 construct": "purchased Eurofins (KinaseProfiler)"}, "[8]": {"molecular_target": "T8, ATM(h) (Homo sapiens, UniProt Q13315)", "T8 construct": "purchased Eurofins (KinaseProfiler)"}, "[9]": {"molecular_target": "T9, Rsk3(h) (Homo sapiens, UniProt Q15349)", "T9 construct": "purchased Eurofins (KinaseProfiler)"}, "[10]": {"molecular_target": "T10, MOK(h) (Homo sapiens, UniProt Q9UQ07)", "T10 construct": "purchased Eurofins (KinaseProfiler)", "T10 sequence (Q9UQ07 1-419)": "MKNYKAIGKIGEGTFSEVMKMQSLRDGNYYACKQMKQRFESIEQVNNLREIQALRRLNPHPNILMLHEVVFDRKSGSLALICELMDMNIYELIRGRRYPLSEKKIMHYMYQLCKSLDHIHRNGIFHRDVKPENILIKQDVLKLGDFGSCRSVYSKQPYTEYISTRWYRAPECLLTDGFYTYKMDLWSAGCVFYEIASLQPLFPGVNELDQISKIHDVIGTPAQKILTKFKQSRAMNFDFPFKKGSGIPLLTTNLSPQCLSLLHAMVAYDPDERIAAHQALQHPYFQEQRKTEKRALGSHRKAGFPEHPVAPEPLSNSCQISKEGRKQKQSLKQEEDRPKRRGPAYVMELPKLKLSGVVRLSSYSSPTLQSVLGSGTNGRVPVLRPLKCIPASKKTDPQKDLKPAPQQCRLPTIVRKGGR"}, "[11]": {"molecular_target": "T11, ROCK-II(h) (Homo sapiens, UniProt O75116)", "T11 construct": "purchased Eurofins (KinaseProfiler)", "T11 sequence (O75116 whole entry)": "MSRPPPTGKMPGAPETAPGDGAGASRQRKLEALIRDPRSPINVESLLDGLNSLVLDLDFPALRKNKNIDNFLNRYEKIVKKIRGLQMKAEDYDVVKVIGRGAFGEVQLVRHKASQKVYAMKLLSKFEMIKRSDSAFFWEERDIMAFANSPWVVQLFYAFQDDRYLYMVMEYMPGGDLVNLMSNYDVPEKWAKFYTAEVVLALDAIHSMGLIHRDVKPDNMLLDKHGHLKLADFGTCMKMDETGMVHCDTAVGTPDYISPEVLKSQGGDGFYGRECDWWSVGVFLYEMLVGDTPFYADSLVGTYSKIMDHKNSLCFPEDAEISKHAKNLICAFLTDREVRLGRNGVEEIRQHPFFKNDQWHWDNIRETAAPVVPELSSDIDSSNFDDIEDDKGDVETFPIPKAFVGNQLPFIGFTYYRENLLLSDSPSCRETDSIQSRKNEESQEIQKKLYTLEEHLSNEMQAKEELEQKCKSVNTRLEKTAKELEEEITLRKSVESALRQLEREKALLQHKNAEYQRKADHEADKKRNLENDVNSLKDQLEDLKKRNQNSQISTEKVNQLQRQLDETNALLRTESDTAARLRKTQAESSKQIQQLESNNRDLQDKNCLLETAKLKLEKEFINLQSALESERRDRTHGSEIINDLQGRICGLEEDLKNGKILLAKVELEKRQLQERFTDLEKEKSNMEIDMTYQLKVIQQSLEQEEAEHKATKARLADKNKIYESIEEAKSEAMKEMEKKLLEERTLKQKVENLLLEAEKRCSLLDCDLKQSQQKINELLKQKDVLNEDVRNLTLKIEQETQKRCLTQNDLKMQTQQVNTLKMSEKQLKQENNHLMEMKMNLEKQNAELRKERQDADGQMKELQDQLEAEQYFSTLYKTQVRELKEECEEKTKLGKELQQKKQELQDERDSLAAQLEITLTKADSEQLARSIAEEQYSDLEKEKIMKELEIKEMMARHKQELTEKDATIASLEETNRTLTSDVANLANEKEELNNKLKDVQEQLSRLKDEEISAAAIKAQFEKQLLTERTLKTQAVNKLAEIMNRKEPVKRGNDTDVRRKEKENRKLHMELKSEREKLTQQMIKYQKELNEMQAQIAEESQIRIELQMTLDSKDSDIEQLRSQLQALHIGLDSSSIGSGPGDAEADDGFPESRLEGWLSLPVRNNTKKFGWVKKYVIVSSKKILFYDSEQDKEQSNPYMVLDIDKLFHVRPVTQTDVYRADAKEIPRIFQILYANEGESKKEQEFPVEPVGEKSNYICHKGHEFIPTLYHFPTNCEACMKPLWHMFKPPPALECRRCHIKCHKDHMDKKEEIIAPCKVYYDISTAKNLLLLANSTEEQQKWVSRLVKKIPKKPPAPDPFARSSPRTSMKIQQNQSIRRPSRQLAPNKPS"}, "[12]": {"molecular_target": "T12, MYLK2(h) (Homo sapiens, UniProt Q9H1R3)", "T12 construct": "purchased Eurofins (KinaseProfiler)", "T12 sequence (Q9H1R3 whole entry)": "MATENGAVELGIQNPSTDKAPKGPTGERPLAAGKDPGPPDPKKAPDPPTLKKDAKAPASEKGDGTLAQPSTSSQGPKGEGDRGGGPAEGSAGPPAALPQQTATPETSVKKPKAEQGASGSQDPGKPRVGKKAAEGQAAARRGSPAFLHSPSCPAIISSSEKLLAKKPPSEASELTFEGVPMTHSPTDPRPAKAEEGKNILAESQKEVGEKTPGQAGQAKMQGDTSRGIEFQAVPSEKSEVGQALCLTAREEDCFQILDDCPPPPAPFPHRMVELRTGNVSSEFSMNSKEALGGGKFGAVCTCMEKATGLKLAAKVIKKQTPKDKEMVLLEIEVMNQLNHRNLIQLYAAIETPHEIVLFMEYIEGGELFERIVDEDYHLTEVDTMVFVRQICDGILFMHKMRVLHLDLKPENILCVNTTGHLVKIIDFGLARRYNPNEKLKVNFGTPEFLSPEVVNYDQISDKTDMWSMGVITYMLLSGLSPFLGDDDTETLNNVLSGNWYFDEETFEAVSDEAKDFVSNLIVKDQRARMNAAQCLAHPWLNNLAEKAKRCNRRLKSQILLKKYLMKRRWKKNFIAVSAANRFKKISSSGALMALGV"}, "[13]": {"molecular_target": "T13, PKCβII(h) (Homo sapiens, UniProt P05771)", "T13 construct": "purchased Eurofins (KinaseProfiler)", "T13 sequence (P05771 1-673 isoform P05771-2)": "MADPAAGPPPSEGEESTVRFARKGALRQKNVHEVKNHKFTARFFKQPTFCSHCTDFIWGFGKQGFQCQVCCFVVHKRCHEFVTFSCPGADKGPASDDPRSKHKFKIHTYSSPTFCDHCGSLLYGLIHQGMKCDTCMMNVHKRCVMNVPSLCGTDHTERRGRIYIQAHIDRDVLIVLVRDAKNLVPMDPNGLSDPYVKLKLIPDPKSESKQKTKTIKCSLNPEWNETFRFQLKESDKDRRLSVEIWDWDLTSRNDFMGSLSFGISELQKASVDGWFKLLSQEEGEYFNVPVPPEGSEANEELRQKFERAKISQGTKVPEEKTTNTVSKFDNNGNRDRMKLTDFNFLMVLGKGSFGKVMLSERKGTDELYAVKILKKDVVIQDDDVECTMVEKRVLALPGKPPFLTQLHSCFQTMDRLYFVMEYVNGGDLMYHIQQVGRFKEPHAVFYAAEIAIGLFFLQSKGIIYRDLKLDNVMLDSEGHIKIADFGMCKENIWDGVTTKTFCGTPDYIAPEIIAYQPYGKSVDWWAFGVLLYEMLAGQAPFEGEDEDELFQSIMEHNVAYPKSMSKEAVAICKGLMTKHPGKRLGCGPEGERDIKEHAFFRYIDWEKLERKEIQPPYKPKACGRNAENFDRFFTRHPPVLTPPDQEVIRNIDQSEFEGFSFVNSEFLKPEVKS"}, "[14]": {"molecular_target": "T14, ALK1(h) (Homo sapiens, UniProt P37023)", "T14 construct": "purchased Eurofins (KinaseProfiler)", "T14 sequence (P37023 22-503)": "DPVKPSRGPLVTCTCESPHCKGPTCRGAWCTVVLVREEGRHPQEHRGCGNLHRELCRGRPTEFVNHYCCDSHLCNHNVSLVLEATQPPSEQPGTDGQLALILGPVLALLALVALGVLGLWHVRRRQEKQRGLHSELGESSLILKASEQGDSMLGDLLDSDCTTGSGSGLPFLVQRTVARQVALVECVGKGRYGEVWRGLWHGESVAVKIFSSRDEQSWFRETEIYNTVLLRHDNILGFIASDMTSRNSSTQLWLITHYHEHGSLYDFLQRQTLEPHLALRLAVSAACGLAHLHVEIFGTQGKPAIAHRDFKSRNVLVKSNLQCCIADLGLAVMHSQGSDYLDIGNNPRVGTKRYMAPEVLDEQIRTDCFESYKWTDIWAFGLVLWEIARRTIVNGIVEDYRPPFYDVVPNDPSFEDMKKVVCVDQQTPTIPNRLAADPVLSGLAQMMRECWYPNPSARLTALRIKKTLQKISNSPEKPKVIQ"}}, "data": [{"smiles": "COc1cc(OC)c(Cl)c(-c2ccc3c(NC(=O)c4ccc(N5CCNC(C)(C)C5)cc4)n[nH]c3n2)c1Cl", "note": "[3D185]", "values": [{"measurement": "inhibition at 0.01 µM", "setting": "[1]; 10 nM", "value": -1, "unit": "%"}, {"measurement": "inhibition at 0.1 µM", "setting": "[1]; 100 nM", "value": 1, "unit": "%"}, {"measurement": "inhibition at 1 µM", "setting": "[1]; 1000 nM", "value": 3, "unit": "%"}, {"measurement": "inhibition at 0.01 µM", "setting": "[2]; 10 nM", "value": -2, "unit": "%"}, {"measurement": "inhibition at 0.1 µM", "setting": "[2]; 100 nM", "value": -6, "unit": "%"}, {"measurement": "inhibition at 1 µM", "setting": "[2]; 1000 nM", "value": -9, "unit": "%"}, {"measurement": "inhibition at 0.01 µM", "setting": "[3]; 10 nM", "value": -7, "unit": "%"}, {"measurement": "inhibition at 0.1 µM", "setting": "[3]; 100 nM", "value": -7, "unit": "%"}, {"measurement": "inhibition at 1 µM", "setting": "[3]; 1000 nM", "value": -4, "unit": "%"}, {"measurement": "inhibition at 0.01 µM", "setting": "[4]; 10 nM", "value": -15, "unit": "%"}, {"measurement": "inhibition at 0.1 µM", "setting": "[4]; 100 nM", "value": -19, "unit": "%"}, {"measurement": "inhibition at 1 µM", "setting": "[4]; 1000 nM", "value": -17, "unit": "%"}, {"measurement": "inhibition at 0.01 µM", "setting": "[5]; 10 nM", "value": 31, "unit": "%"}, {"measurement": "inhibition at 0.1 µM", "setting": "[5]; 100 nM", "value": 87, "unit": "%"}, {"measurement": "inhibition at 1 µM", "setting": "[5]; 1000 nM", "value": 97, "unit": "%"}, {"measurement": "inhibition at 0.01 µM", "setting": "[6]; 10 nM", "value": -13, "unit": "%"}, {"measurement": "inhibition at 0.1 µM", "setting": "[6]; 100 nM", "value": -3, "unit": "%"}, {"measurement": "inhibition at 1 µM", "setting": "[6]; 1000 nM", "value": -10, "unit": "%"}, {"measurement": "inhibition at 0.01 µM", "setting": "[7]; 10 nM", "value": -3, "unit": "%"}, {"measurement": "inhibition at 0.1 µM", "setting": "[7]; 100 nM", "value": 12, "unit": "%"}, {"measurement": "inhibition at 1 µM", "setting": "[7]; 1000 nM", "value": -4, "unit": "%"}, {"measurement": "inhibition at 0.01 µM", "setting": "[8]; 10 nM", "value": -3, "unit": "%"}, {"measurement": "inhibition at 0.1 µM", "setting": "[8]; 100 nM", "value": -5, "unit": "%"}, {"measurement": "inhibition at 1 µM", "setting": "[8]; 1000 nM", "value": -5, "unit": "%"}, {"measurement": "inhibition at 0.01 µM", "setting": "[9]; 10 nM", "value": -17, "unit": "%"}, {"measurement": "inhibition at 0.1 µM", "setting": "[9]; 100 nM", "value": -19, "unit": "%"}, {"measurement": "inhibition at 1 µM", "setting": "[9]; 1000 nM", "value": -15, "unit": "%"}, {"measurement": "inhibition at 0.01 µM", "setting": "[10]; 10 nM", "value": -7, "unit": "%"}, {"measurement": "inhibition at 0.1 µM", "setting": "[10]; 100 nM", "value": 6, "unit": "%"}, {"measurement": "inhibition at 1 µM", "setting": "[10]; 1000 nM", "value": 1, "unit": "%"}, {"measurement": "inhibition at 0.01 µM", "setting": "[11]; 10 nM", "value": 0, "unit": "%"}, {"measurement": "inhibition at 0.1 µM", "setting": "[11]; 100 nM", "value": -1, "unit": "%"}, {"measurement": "inhibition at 1 µM", "setting": "[11]; 1000 nM", "value": -1, "unit": "%"}, {"measurement": "inhibition at 0.01 µM", "setting": "[12]; 10 nM", "value": 7, "unit": "%"}, {"measurement": "inhibition at 0.1 µM", "setting": "[12]; 100 nM", "value": 0, "unit": "%"}, {"measurement": "inhibition at 1 µM", "setting": "[12]; 1000 nM", "value": 21, "unit": "%"}, {"measurement": "inhibition at 0.01 µM", "setting": "[13]; 10 nM", "value": -12, "unit": "%"}, {"measurement": "inhibition at 0.1 µM", "setting": "[13]; 100 nM", "value": -1, "unit": "%"}, {"measurement": "inhibition at 1 µM", "setting": "[13]; 1000 nM", "value": -8, "unit": "%"}, {"measurement": "inhibition at 0.01 µM", "setting": "[14]; 10 nM", "value": 3, "unit": "%"}, {"measurement": "inhibition at 0.1 µM", "setting": "[14]; 100 nM", "value": -7, "unit": "%"}, {"measurement": "inhibition at 1 µM", "setting": "[14]; 1000 nM", "value": -1, "unit": "%"}]}]}
